Where “and” joins values, the source holds several entries; their conditions need not be identical. Equal entries are not always repeated.
Key:
[1] = system: C6 cells; type: cell-based, rats
[2] = system: C6 cells; experiment: In vitro potency test/neutralization assay with fish sera on C6 cells; type: cell-based, rats
Method: In line with Example 7, an in vitro potency test/neutralization assay was performed with the sera raised as described in Example 8. For this, C6 cells were seeded at 2.0*10^4 cells/ml, 100 μl per well, and grown at 37° C., 5% CO2 for 3 days. Cells were incubated for 48 h, with a combination of 20 μg/ml AFB1 and 32× diluted serum derived from fish vaccinated with AFB1-KLH in GNE or vaccinated with a placebo. Percentages of live cells were determined by microscopical evaluation.

[3] = type: in vivo; conditions: pig plasma; DON bolus 0.05 mg/kg at 11 weeks of age; DON-KLH = pigs immunised IM at 3 and 6 weeks, DON = control pigs
Method: Ten 3 week old pigs were used in the study, divided over 2 groups of 5 pigs each. The pigs in Group 1 were immunised IM twice at 3 and 6 weeks of age with DON-KLH (Test Article 1; example1). Group 2 served as a control and only received a control fluid. At the age of 11 weeks the animals were each administered DON (Fermentek, Israel) via a bolus at a dose of 0.05 mg/kg which (based on the daily feed intake) resembled a contamination level of 1 mg/kg feed. Blood samples of the pigs were taken juts before DON administration and 0.25, 0.5, 0.75, 1, 1.5, 2, 3, 4, 6, 8, and 12 h post DON administration.
Plasma analysis of unbound DON was done using a validated LC-MS/MS method on an Acquity® UPLC system coupled to a Xevo® TQ-S MS instrument (Waters, Zellik, Belgium). The lower limit of quantification of DON in pig plasma using this method is 0.1 ng/ml.
Toxicokinetic modeling of the plasma concentration-time profiles of DON was done by noncompartmental analysis (Phoenix, Pharsight Corporation, USA). Following parameters were calculated: area under the curve from time zero to infinite (AUC0→∞), maximal plasma concentration (Cmax), and time at maximal plasma concentration (tmax).

Row | Compound | concentration from which toxic on C6 cells (dose response curve) [1] | Percentage live cells after incubation with AFB1 and diluted fish serum [2] | AUC0→∞ of unbound DON [3] | Cmax of unbound DON [3]
1 | COc1cc2c(c3oc(=O)c4c(c13)CCC4=O)[C@@H]1C=CO[C@@H]1O2 [AFB1, Aflatoxin B1] | ≥ 20000 ng/mL | 95% and 65% |  | 
2 | CC1=C[C@H]2O[C@@H]3[C@H](O)C[C@](C)([C@@]2(CO)[C@H](O)C1=O)[C@]31CO1 [DON, deoxynivalenol] |  |  | 187 ± 33 | 30.8 ± 2.5

Reference: patent publication US20240024446A1 (priority 2020, published 2024)
